In the experiment the target is T1, GLP-1 Receptor (GLP1R) (Homo sapiens, UniProt P43220).
T1 construct: host or cells: HEK293/GLP1R/CRE-LUC
The experiment in a line: GLP-1R agonist cAMP stimulation assay (Method 3). Type of experiment: cell-based. The note with it: HEK293/GLP1R/CRE-LUC cells (HDB), Method 3, 30 min incubation. Put shortly: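 HEK293 CRE-Luc cells stably expressing GLP-1R (1000 cells/well) were exposed to ½-log serially diluted compound in DPBS with 0.5 mM IBMX and 0.1% BSA for 30 min at 37 °C. cAMP was quantified by HTRF (cAMP-d2/anti-cAMP cryptate), 1 h at room temperature, read at 665/615 nm.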

[1] abbreviates: read-out: GLP1R cAMP Stimulation DR: EC50 (nM) [Species: Human, Assay Cell Line: HDB].
[2] abbreviates: read-out: GLP1R cAMP Stimulation DR: pEC50 (M) [Species: Human, Assay Cell Line: HDB] (converted).

Where a name gives a salt, the structure may show the parent alone. Read-outs that look alike come from different tables or passages of the source.

Consider 12 compounds from patent publication US20240366639A1, “HETEROCYCLIC GLP-1 AGONISTS” (GASHERBRUM BIO, INC., priority 2021, published 2024).

T1 sequence (P43220 24-463): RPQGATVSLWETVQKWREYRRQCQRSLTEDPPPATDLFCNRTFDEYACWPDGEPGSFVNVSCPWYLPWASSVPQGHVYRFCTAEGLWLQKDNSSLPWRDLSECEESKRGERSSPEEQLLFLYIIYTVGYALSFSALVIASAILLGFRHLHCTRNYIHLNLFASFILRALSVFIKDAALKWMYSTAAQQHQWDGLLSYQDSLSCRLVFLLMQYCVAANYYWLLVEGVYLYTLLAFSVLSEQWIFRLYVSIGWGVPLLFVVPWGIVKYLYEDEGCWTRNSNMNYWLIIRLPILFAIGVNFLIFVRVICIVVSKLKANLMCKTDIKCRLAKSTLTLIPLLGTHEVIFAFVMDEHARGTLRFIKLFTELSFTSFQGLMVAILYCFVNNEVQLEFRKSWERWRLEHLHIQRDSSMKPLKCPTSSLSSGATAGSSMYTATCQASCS

Take `Cc1cc(-n2nc3c(c2-n2ccn(-c4cccc(P(C)(C)=O)n4)c2=O)[C@H](C)N(C(=O)c2cc4cc(C5CCOCC5)ccc4n2[C@@]2(c4noc(=O)[nH]4)C[C@@H]2C)CC3)cc(C)c1F` [Compound 113a, 3-((1S,2S)-1-(2-((S)-3-(3-(6-(dimethylphosphoryl)pyridin-2-yl)-2-oxo-2,3-dihydro-1H-imidazol-1-yl)-2-(4-fluoro-3,5-dimethylphenyl)-4-methyl-4,5,6,7-tetrahydro-2H-pyrazolo[4,3-c]pyridine-5-carbonyl)-5-(tetrahydro-2H-pyran-4-yl)-1H-indol-1-yl)-2-methylcyclopropyl)-1,2,4-oxadiazol-5(4H)-one]: the EC50 was 0.2 to 0.5 nM under setting [1] and 0.1 to 1 nM under setting [2].

As to `CCP(=O)(CC)c1ccc(-n2ccn(-c3c4c(nn3-c3cc(C)c(F)c(C)c3)CCN(C(=O)c3cc5cc(C6CCOCC6)ccc5n3[C@@]3(c5noc(=O)[nH]5)C[C@@H]3C)[C@H]4C)c2=O)cc1NC(=O)C1CC1` [Compound 115a, N-(2-(diethylphosphoryl)-5-(3-((S)-2-(4-fluoro-3,5-dimethylphenyl)-4-methyl-5-(1-((1S,2S)-2-methyl-1-(5-oxo-4,5-dihydro-1,2,4-oxadiazol-3-yl)cyclopropyl)-5-(tetrahydro-2H-pyran-4-yl)-1H-indole-2-carbonyl)-4,5,6,7-tetrahydro-2H-pyrazolo[4,3-c]pyridin-3-yl)-2-oxo-2,3-dihydro-1H-imidazol-1-yl)phenyl)cyclopropanecarboxamide], the EC50 runs as follows: under setting [1], 0.2 to 0.5 nM; under setting [2], 0.1 to 1 nM.

Consider `CCP(=O)(CC)c1ccc(-n2ccn(-c3c4c(nn3-c3cc(C)c(F)c(C)c3)CCN(C(=O)c3cc5cc(C6CCOCC6)ccc5n3[C@@]3(c5noc(=O)[nH]5)C[C@@H]3C)[C@H]4C)c2=O)cc1NC` [Compound 121a, 3-((1S,2S)-1-(2-((S)-3-(3-(4-(diethylphosphoryl)-3-(methylamino)phenyl)-2-oxo-2,3-dihydro-1H-imidazol-1-yl)-2-(4-fluoro-3,5-dimethylphenyl)-4-methyl-4,5,6,7-tetrahydro-2H-pyrazolo[4,3-c]pyridine-5-carbonyl)-5-(tetrahydro-2H-pyran-4-yl)-1H-indol-1-yl)-2-methylcyclopropyl)-1,2,4-oxadiazol-5(4H)-one], for which the EC50 runs as follows: under setting [1], below 0.1 nM; under setting [2], at most 0.1 nM.

As for `CCP(=O)(CC)c1ccc(-n2ccn(-c3c4c(nn3-c3cc(C)c(F)c(C)c3)CCN(C(=O)c3cc5cc([C@H]6CCOC(C)(C)C6)ccc5n3[C@@]3(c5noc(=O)[nH]5)C[C@@H]3C)[C@H]4C)c2=O)cc1NC` [Compound 146b, 3-((1S,2S)-1-(2-((S)-3-(3-(4-(diethylphosphoryl)-3-(methylamino)phenyl)-2-oxo-2,3-dihydro-1H-imidazol-1-yl)-2-(4-fluoro-3,5-dimethylphenyl)-4-methyl-4,5,6,7-tetrahydro-2H-pyrazolo[4,3-c]pyridine-5-carbonyl)-5-((S)-2,2-dimethyltetrahydro-2H-pyran-4-yl)-1H-indol-1-yl)-2-methylcyclopropyl)-1,2,4-oxadiazol-5(4H)-one], the EC50 runs as follows: under setting [1], below 0.1 nM; under setting [2], at most 0.1 nM.

Turning to `Cc1cc(-n2nc3c(c2-n2ccn(-c4ccc(P5(=O)CCN(C)CC5)cc4)c2=O)[C@H](C)N(C(=O)c2cc4cc(C5CCOCC5)ccc4n2[C@@]2(c4noc(=O)[nH]4)C[C@@H]2C)CC3)cc(C)c1F` [Compound 126a, 3-((1S,2S)-1-(2-((S)-2-(4-fluoro-3,5-dimethylphenyl)-4-methyl-3-(3-(4-(1-methyl-4-oxido-1,4-azaphosphinan-4-yl)phenyl)-2-oxo-2,3-dihydro-1H-imidazol-1-yl)-4,5,6,7-tetrahydro-2H-pyrazolo[4,3-c]pyridine-5-carbonyl)-5-(tetrahydro-2H-pyran-4-yl)-1H-indol-1-yl)-2-methylcyclopropyl)-1,2,4-oxadiazol-5(4H)-one], the EC50 by setting is: under setting [1], 0.1 to 0.2 nM; under setting [2], 0.1 to 1 nM.

As for `Cc1cc(-n2nc3c(c2-n2ccn(-c4cccc(P(C)(C)=O)c4)c2=O)[C@H](C)N(C(=O)c2cc4cc(C5CCOCC5)ccc4n2[C@@]2(c4noc(=O)[nH]4)C[C@@H]2C)CC3)cc(C)c1F` [Compound 109a, 3-((1S,2S)-1-(2-((S)-3-(3-(3-(dimethylphosphoryl)phenyl)-2-oxo-2,3-dihydro-1H-imidazol-1-yl)-2-(4-fluoro-3,5-dimethylphenyl)-4-methyl-4,5,6,7-tetrahydro-2H-pyrazolo[4,3-c]pyridine-5-carbonyl)-5-(tetrahydro-2H-pyran-4-yl)-1H-indol-1-yl)-2-methylcyclopropyl)-1,2,4-oxadiazol-5(4H)-one], the EC50 was 0.1 to 0.2 nM under setting [1] and 0.1 to 1 nM under setting [2].

Regarding `CCP(=O)(CC)c1ccc(-n2ccn(-c3c4c(nn3-c3cc(C)c(F)c(C)c3)CCN(C(=O)c3cc5cc(C6CCOCC6)ccc5n3[C@@]3(c5noc(=O)[nH]5)C[C@@H]3C)[C@H]4C)c2=O)cc1N(C)C` [Compound 117a, 3-((1S,2S)-1-(2-((S)-3-(3-(4-(diethylphosphoryl)-3-(dimethylamino)phenyl)-2-oxo-2,3-dihydro-1H-imidazol-1-yl)-2-(4-fluoro-3,5-dimethylphenyl)-4-methyl-4,5,6,7-tetrahydro-2H-pyrazolo[4,3-c]pyridine-5-carbonyl)-5-(tetrahydro-2H-pyran-4-yl)-1H-indol-1-yl)-2-methylcyclopropyl)-1,2,4-oxadiazol-5(4H)-one HCl salt], the EC50 runs as follows: under setting [1], 0.2 to 0.5 nM; under setting [2], 0.1 to 1 nM.

Consider `Cc1cc(-n2nc3c(c2-n2ccn(-c4ccc(P(=O)(C(C)C)C(C)C)cc4)c2=O)[C@H](C)N(C(=O)c2cc4cc(C5CCOCC5)ccc4n2[C@@]2(c4noc(=O)[nH]4)C[C@@H]2C)CC3)cc(C)c1F` [Compound 128a, 3-((1S,2S)-1-(2-((S)-3-(3-(4-(diisopropylphosphoryl)phenyl)-2-oxo-2,3-dihydro-1H-imidazol-1-yl)-2-(4-fluoro-3,5-dimethylphenyl)-4-methyl-4,5,6,7-tetrahydro-2H-pyrazolo[4,3-c]pyridine-5-carbonyl)-5-(tetrahydro-2H-pyran-4-yl)-1H-indol-1-yl)-2-methylcyclopropyl)-1,2,4-oxadiazol-5(4H)-one], for which the EC50 by setting is: under setting [1], below 0.1 nM; under setting [2], at most 0.1 nM.

As for `Cc1cc(-n2nc3c(c2-n2ccn(-c4ccc(P(C)(C)=O)nc4)c2=O)[C@H](C)N(C(=O)c2cc4cc(C5CCOCC5)ccc4n2[C@@]2(c4noc(=O)[nH]4)C[C@@H]2C)CC3)cc(C)c1F` [Compound 105a, 3-((1S,2S)-1-(2-((S)-3-(3-(6-(dimethylphosphoryl)pyridin-3-yl)-2-oxo-2,3-dihydro-1H-imidazol-1-yl)-2-(4-fluoro-3,5-dimethylphenyl)-4-methyl-4,5,6,7-tetrahydro-2H-pyrazolo[4,3-c]pyridine-5-carbonyl)-5-(tetrahydro-2H-pyran-4-yl)-1H-indol-1-yl)-2-methylcyclopropyl)-1,2,4-oxadiazol-5(4H)-one], the EC50 runs as follows: under setting [1], 0.1 to 0.2 nM; under setting [2], 0.1 to 1 nM.

As to `CNc1cc(-n2ccn(-c3c4c(nn3-c3cc(C)c(F)c(C)c3)CCN(C(=O)c3cc5cc(C6CCOCC6)ccc5n3C3(c5noc(=O)[nH]5)CC3)[C@H]4C)c2=O)ccc1P(=O)(C1CC1)C1CC1` [Compound 148a, (S)-3-(1-(2-(3-(3-(4-(dicyclopropylphosphoryl)-3-(methylamino)phenyl)-2-oxo-2,3-dihydro-1H-imidazol-1-yl)-2-(4-fluoro-3,5-dimethylphenyl)-4-methyl-4,5,6,7-tetrahydro-2H-pyrazolo[4,3-c]pyridine-5-carbonyl)-5-(tetrahydro-2H-pyran-4-yl)-1H-indol-1-yl)cyclopropyl)-1,2,4-oxadiazol-5(4H)-one], the EC50 was below 0.1 nM under setting [1] and at most 0.1 nM under setting [2].

Take `CCP(=O)(CC)c1ccc(-n2ccn(-c3c4c(nn3-c3cc(C)c(F)c(C)c3)CCN(C(=O)c3cc5cc(C6CCOCC6)ccc5n3[C@@]3(c5noc(=O)[nH]5)C[C@@H]3C)[C@H]4C)c2=O)cc1OC` [Compound 118a, 3-((1S,2S)-1-(2-((S)-3-(3-(4-(diethylphosphoryl)-3-methoxyphenyl)-2-oxo-2,3-dihydro-1H-imidazol-1-yl)-2-(4-fluoro-3,5-dimethylphenyl)-4-methyl-4,5,6,7-tetrahydro-2H-pyrazolo[4,3-c]pyridine-5-carbonyl)-5-(tetrahydro-2H-pyran-4-yl)-1H-indol-1-yl)-2-methylcyclopropyl)-1,2,4-oxadiazol-5(4H)-one]: the EC50 is below 0.1 nM under setting [1] and at most 0.1 nM under setting [2].

With `CCP(=O)(CC)c1c(F)cc(-n2ccn(-c3c4c(nn3-c3cc(C)c(F)c(C)c3)CCN(C(=O)c3cc5cc(C6CCOCC6)ccc5n3[C@@]3(c5noc(=O)[nH]5)C[C@@H]3C)[C@H]4C)c2=O)cc1NC` [Compound 143a, 3-((1S,2S)-1-(2-((S)-3-(3-(4-(diethylphosphoryl)-3-fluoro-5-(methylamino)phenyl)-2-oxo-2,3-dihydro-1H-imidazol-1-yl)-2-(4-fluoro-3,5-dimethylphenyl)-4-methyl-4,5,6,7-tetrahydro-2H-pyrazolo[4,3-c]pyridine-5-carbonyl)-5-(tetrahydro-2H-pyran-4-yl)-1H-indol-1-yl)-2-methylcyclopropyl)-1,2,4-oxadiazol-5(4H)-one], the EC50 is, setting by setting: under setting [1], 0.1 to 0.2 nM; under setting [2], 0.1 to 1 nM.
